Measured values taken from patent US12459910B2, “Mitochondrial therapeutic agents” (ARIZONA BOARD OF REGENTS ON BEHALF OF ARIZONA STATE …, priority 2021, dated 2025).

Assays:
[1] = tested on: FRDA lymphocytes; experiment: RSL3 challenge lipid peroxidation assay (C11-BODIPY581/591, FACS); format: cell-based; conditions: Homo sapiens; FRDA lymphocytes (GM15850); compounds overnight, then 2 μM RSL3; C11-BODIPY581/591 flow cytometry; read-out: RSL3 challenge lipid peroxidation inhibition EC50
Text: (§1) All compounds evaluated for their biological effects were >95% pure. Chemicals employed for the bioassays, including ferrostatin-1 (Fer-1), liproxstatin-1 (Lip-1), RSL3 ((1S,3R)-RSL3), erastin, α-tocopherol, carbonyl cyanide 4-(trifluoromethoxy) phenylhydrazone (FCCP) and galactose, were purchased from Sigma Aldrich. Fluorescent probes, including C11-BODIPY581/591(4,4-difluoro-5-(4-phenyl-1,3-butadienyl)-4-bora-3a,4a-diaza-s-indacene-3-propionic acid), and The Live/Dead® Viability/Cytotoxicity Kit were obtained from Invitrogen (Thermo Fisher Scientific). Luciferase-linked ATPase enzymatic assay (ViaLight Plus proliferation/cytoxicity kit was purchased from Lonza (Walkersville, MD). FRDA lymphocytes (catalogue number GM15850) and FRDA fibroblasts cells (catalogue number GM04078) were obtained from Coriell Cell Repositories (Camden, NJ, USA).
(§2) Lymphocytes were cultured in RPMI-1640 medium (Gibco, Life Technologies, Grand Island, NY) with 15% fetal calf serum, 2 mM glutamine (HyClone, South Logan, UT) and 1% penicillin-streptomycin antibiotic supplement (Cellgro, Manassas, VA). Cells were passaged daily to maintain them in log phase growth and kept at a nominal concentration of 5-10×105 mL. FRDA fibroblasts were cultured in 64% (v/v) Eagle's minimal essential medium (MEM), lacking phenol red with Eagle's balanced salt (EBS) and 25% M199 with EBS (Gibco) supplemented with 10% (v/v) fetal bovine serum albumin (HyClone), 1% penicillin-streptomycin antibiotic mix, 10 μg/mL insulin (Gibco), 10 ng/mL […] (EGF), 10 ng/mL basic fibroblast growth factor (Gibco) and 2 mM glutamine. Cells were grown in 75 cm2 culture flasks and incubated at 37° C. in a humidified atmosphere of 5% CO2 in air. Cells were fed twice weekly and split every third day at a ratio of 1:3. All experiments were conducted with FRDA cells from passages 8-14.
Lipid peroxidation in live cells can be visualized using the oxidation-sensitive fluorescent probe C11-BODIPY581/591. Upon oxidation of this probe, the fluorescence properties shift from a red-emitting form (595 nm) to a green emitting form (520 nm). Changes in fluorescence indirectly reflect the oxidation of unsaturated fatty acids. A quantitative analysis of lipid peroxidation in FRDA lymphocytes, challenged with 2 μM RSL3 in the presence or absence of the test compounds for 2 h was obtained by FACS analysis using the specific dye C11-BODIPY581/591. Briefly, FRDA lymphocytes (5×10^5 cell/mL) were treated with the test compounds (dissolved in DMSO and added to the assay medium at final DMSO concentrations <0.5%) at varying concentrations and incubated at 37° C. overnight in a humidified atmosphere containing 5% CO2 in air. Cells were treated with 2 μM of RSL3 and then incubated for 90 minutes in a humidified atmosphere containing 5% CO2 in air at 37° C. Cells were treated with 2 μM of C11-BODIPY581/591 in phenol red-free RPMI-1640 media and incubated at 37° C. in the dark for 30 min. […] Cells were resuspended in 300 μL of PBS and were analyzed immediately by flow cytometry (C6 Accuri, BD Biosciences, San Jose, CA), to monitor the change in intensity of the C11-BODIPY581/591-green (oxidized) fluorescence signal using 488 nm excitation laser and FL1-H channel 538 nm emission filter. In each analysis, 10,000 events were recorded. […] Final data output was a calculated EC50 value determined graphically from the dose-response curves using the nonlinear regression curve fit analysis model.

[2] = tested on: FRDA fibroblasts; experiment: Erastin cell survival assay (cellular ATP, ViaLight Plus); format: cell-based; conditions: FRDA fibroblasts (GM04078); compounds 12 h before 4 μM erastin; viability by ATP 48 h after erastin; read-out: Erastin challenge cell survival EC50
Text: as §1, §2
The ability of the test compounds to confer cytoprotection to ferroptosis inducer erastin in FRDA fibroblasts was determined by assessing the depletion of cellular ATP using a commercially available luciferase-linked ATPase enzymatic assay (ViaLight® Plus proliferation/cytotoxicity Kit (Lonza, Walkersville, MD) according to the directions of the manufacturer. Briefly, FRDA fibroblasts (GM04078) were plated in 96-well microtiter plates at a density of 3000 cell/well (50 μL) (Costar, Corning, NY). The plates were incubated at 37° C. for 24 h in an atmosphere having 95% humidity and 5% CO2 to allow attachment of the cells to the culture plates and to allow the cell density reach 60-70% confluency. The next day the test compounds were dissolved in DMSO, diluted to the appropriate concentrations in fresh cell culture media and the cells were then treated with the test compounds (final DMSO concentration was <0.5%). […] Cell viability in each well was determined 48 h after erastin addition by measuring the intracellular ATP content using the ViaLight®-Plus ATP monitoring reagent kit (Lonza, Walkersville, MD) according to the manufacturer's protocol. The ATP concentration was determined by reading luminescence using a luminator (Clarity™ luminescence microplate reader). The percent of viable cells relative to non-treated control was determined for each well. […] Final data output was a calculated EC50 value determined graphically from the dose-response curves using the nonlinear regression curve fit analysis model.

Compound | EC50 [1] [nM] | EC50 [2] [nM]
CCCCCCCCCCc1cc2nc3ccc(=O)cc-3sc2cc1N(C)C [Example 1, 8-Decyl-7-(dimethylamino)-3H-phenothiazin-3-One] | 9 ± 1 | 10 ± 1
CCCCCCCCc1cc2nc3ccc(=O)cc-3sc2cc1N(C)C [Example 2, 7-(Dimethylamino)-8-octyl-3H-phenothiazin-3-one] | 14 ± 1 | 15 ± 3
CCCCCCCCCc1cc2nc3ccc(=O)cc-3sc2cc1N(C)C [Example 3, 7-(Dimethylamino)-8-nonyl-3H-phenothiazin-3-one] | 12 ± 1 | 11 ± 1
CCCCCCCCCCCCc1cc2nc3ccc(=O)cc-3sc2cc1N(C)C [Example 4, 7-(Dimethylamino)-8-dodecyl-3H-phenothiazin-3-one] | 16 ± 1 | 15 ± 1
CCCCCCCCCCCCCCCCc1cc2nc3ccc(=O)cc-3sc2cc1N(C)C [Example 5, 7-(Dimethylamino)-8-hexadecyl-3H-phenothiazin-3-one] | 25 ± 3 | 22 ± 2
